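Protocol summary: plate cells (96-well), add compound at 5 concentrations, incubate 48 h, interpolate endpoints linearly. TGI marks complete inhibition of growth.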 Where a SMILES comes first, the peptide text is derived from it. [ ]: non-standard residue; d: D form. The star is where a group is joined. Phe(4-NO2) = N[CH](Cc1ccc([N+](=O)[O-])cc1)C(=O)O; Cbz = O=C(OCc1ccccc1)*
Legend:
Assay in all cases: DTP human tumour cell line panel, 48 h
[1] = tested on: COLO 205 colon
[2] = tested on: SW-620 colon
[3] = tested on: HCC-2998 colon
[4] = tested on: MALME-3M melanoma
[5] = tested on: SK-MEL-5 melanoma
[6] = tested on: MDA-MB-231 breast
[7] = tested on: NCI-H226 lung
[8] = tested on: SF-268 CNS
[9] = tested on: HT29 colon
[10] = tested on: U251 CNS
[11] = tested on: HS 578T breast
[12] = tested on: HL-60(TB) leukemia
[13] = tested on: DU-145 prostate
[14] = tested on: BT-549 breast

| Compound | TGI [1] [µM] | TGI [2] [µM] | TGI [3] [µM] | TGI [4] [µM] | TGI [5] [µM] | TGI [6] [µM] | TGI [7] [µM] | TGI [8] [µM] | TGI [9] [µM] | TGI [10] [µM] | TGI [11] [µM] | TGI [12] [µM] | TGI [13] [µM] | TGI [14] [µM] |
| --- | --- | --- | --- | --- | --- | --- | --- | --- | --- | --- | --- | --- | --- | --- |
| COc1cccc(-c2nc(N)c(C#N)c3c2CCS(=O)(=O)c2ccc(C)cc2-3)c1 | > 56.4 | > 100 | > 100 | > 100 | > 63.3 | > 95.3 | > 100 | > 100 | > 49.1 | > 100 | 48 | 37.5 | > 100 | > 100 |
| Clc1nc(NC23CC4CC(CC(C4)C2)C3)nc(NC23CC4CC(CC(C4)C2)C3)n1 | > 100 | > 100 | > 100 | > 100 | > 100 | > 76.3 | > 100 | > 100 | > 100 | > 69 | > 100 | 87.5 | > 100 | > 100 |
| NC(N)=NS(=O)(=O)c1ccc(NCc2cccc3c(=O)c4ccc(Cl)cc4oc23)cc1 | > 20.3 | > 16.8 | > 25 | > 19.2 | > 16.5 | > 15.6 | > 25 | 12.7 | > 14.6 | > 14.6 | 13.9 | 5.94 | 17.3 | > 14.4 |
| O=C(Cn1c(C(=O)/C=C/c2ccc(Cl)c(Cl)c2)nc2ccccc21)c1ccccc1 | 36.2 | > 100 | 35.8 | 86.2 | 35.4 | 70.5 | > 100 | > 100 | 45.5 | > 100 | 56.1 | 36.7 | > 100 | 99.3 |
| CCCCCCCCCCCCCCCCNc1nc(=O)n(C2CC(O)C(COP(=O)(O)OC3CC(n4cc(F)c(=O)[nH]c4=O)OC3CO)O2)cc1F (configuration not stated) | 47.4 | > 100 | 11 | > 72.1 | > 41.9 | > 91.5 | > 100 | > 34.2 | 26.5 | 32 | > 100 | 19 | > 70.6 | 35.3 |
| COc1ccc(-n2c(C)nc3ccc(NC4OC(COC(C)=O)C(OC(C)=O)C(OC(C)=O)C4OC(C)=O)cc3c2=O)cc1 (configuration not stated) | 49.4 | > 100 | > 100 | > 100 | > 100 | > 100 | > 100 | > 100 | > 100 | > 100 | > 100 | 48.7 | > 100 | > 100 |
| c1ccc([P+](Cc2ccc(C[P+](c3ccccc3)(c3ccccc3)c3ccccc3)s2)(c2ccccc2)c2ccccc2)cc1 | > 100 | > 100 | > 100 | > 100 | > 100 | > 100 | > 100 | > 100 | > 100 | > 100 | > 100 | > 100 | > 100 | > 100 |
| C#CCNC(CCCN=C(N)N)C(=O)O (configuration not stated) | > 100 | > 100 | > 100 | > 100 | > 100 | > 100 | > 100 | > 100 | > 100 | > 100 | > 100 | > 100 | > 100 | > 100 |
| COC(=O)c1ccc(C)cc1C1CN=NC12Cc1c(C)cccc1C2=O (configuration not stated) | 42.8 | > 100 | > 100 | > 90.3 | > 53.2 | > 100 | > 90.8 | > 100 | > 100 | > 100 | > 100 | 71.1 | > 100 | > 70.1 |
| C=C(Cl)C(Cl)(CBr)CCCC(C)C (configuration not stated) | 34.9 | > 84 | 34.1 | > 100 | > 100 | > 69.5 | > 100 | 40.1 | 15.7 | 21.9 | 26.9 | > 55.1 | 23.7 | > 100 |
| CC1(c2cccc(C(F)(F)F)c2)CC(c2cccc(C(F)(F)F)c2)=C(C#N)C(=C(C#N)C#N)N1 (configuration not stated) | 30.8 | 52.1 | 31.8 | 32.4 | 29 | 40.7 | 58.6 | 31.1 | 36.2 | 35 | 43.2 | 35.1 | 31 | 40.9 |
| CC(Oc1ccc(Cl)cc1Cl)C(=O)NN1C(=O)CC(=O)NC1=S (configuration not stated) | > 100 | > 100 | > 100 | > 100 | > 100 | > 100 | > 100 | > 100 | > 100 | > 100 | > 100 | 91.8 | > 100 | > 100 |
| Cc1cc(NS(=O)(=O)c2ccc(NC(=O)c3ccc4nc5ccccc5c(Nc5ccc(S(N)(=O)=O)cc5)c4c3)cc2)no1 | 43.8 | 72.3 | > 100 | 61.8 | 41 | 67.1 | > 100 | > 100 | 72.2 | 64.7 | 86.8 | 56.2 | > 100 | 67.5 |
| N#Cc1ccccc1NC(=O)C(O)C(O)C(O)C(O)C=O (configuration not stated) | > 100 | > 100 | > 100 | > 100 | > 100 | > 100 | > 100 | > 100 | > 100 | > 100 | > 100 | > 100 | > 100 | > 100 |
| COc1cc(C)cc2c1C(=O)C(NC(C)=O)=CC2=O | > 100 | > 100 | > 100 | > 100 | > 100 | > 100 | > 100 | > 100 | > 100 | > 100 | > 100 | 53.2 | > 100 | > 100 |
| CCc1n[nH]c(=O)n1N | > 100 | > 100 | > 100 | > 100 | > 100 | > 100 | > 100 | > 100 | > 100 | > 100 | > 100 | > 100 | > 100 | > 100 |
| Cc1ccc2c(n1)C(=O)c1cc(C)c(C)cc1C2=O | > 100 | > 100 | > 100 | > 100 | 79.1 | > 100 | > 100 | > 100 | > 100 | > 100 | > 100 | > 100 | > 100 | > 100 |
| N=c1oc2ccccc2cc1C(=O)Nc1ccccn1 | > 100 | > 100 | > 100 | 54 | > 100 | > 100 | > 100 | > 100 | > 100 | > 100 | > 100 | > 100 | > 100 | > 100 |
| CC1=NN(c2ccccc2Cl)C2(C1)C(Cl)C(=O)N2c1nc2ccccc2s1 (configuration not stated) | > 100 | > 100 | > 100 | > 100 | > 100 | > 100 | > 100 | > 100 | > 100 | 76.5 | > 100 | 60.6 | > 100 | > 100 |
| COC(=O)c1c(C)c2c(c(C)c1O)OC(=O)c1c(C)cc(O)c(C=O)c1O2 | > 100 | > 100 | > 100 | > 100 | > 100 | > 100 | > 100 | > 100 | > 100 | > 100 | > 100 | > 100 | > 100 | > 100 |
| CC1(C)C2CCC1(C)C(NC(=O)COCCOCC(N)=O)C2 (configuration not stated) | > 100 | > 100 | > 100 | > 100 | > 100 | > 100 | > 100 | > 100 | > 100 | > 100 | > 100 | > 100 | > 100 | > 100 |
| CCSc1c2cc(OC)ccc2nc2ccc(OC)cc12 | > 45.3 | > 100 | 25.5 | 28.7 | 30.3 | 44.6 | 40.1 | > 58.6 | 98 | > 79.2 | > 100 | > 100 | > 72.5 | > 100 |
| NNC(=O)c1cc(Cl)ccc1NC(=O)C12CC3CC(CC(C3)C1)C2 | > 100 | > 100 | 65 | 68.6 | 76.5 | > 100 | > 100 | 89.5 | 48 | > 100 | > 100 | 94.2 | > 100 | > 100 |
| CC(C)(C(=O)N(C(=O)N1CCN(c2ccccc2)CC1)S(=O)(=O)c1ccccc1)c1ccc(Cl)cc1 | 42.7 | > 100 | > 100 | > 100 | > 100 | > 100 | > 100 | > 100 | > 100 | > 100 | > 100 | > 100 | > 100 | > 100 |
| COc1cccc(/C=N/[N+](C)(C)C)c1O | > 10 | > 10 | > 10 | > 10 | > 10 | > 10 | > 10 | > 10 | > 10 | > 10 | > 10 | > 10 | > 10 | > 10 |
| COc1ccc(-c2c(C#N)c(N)nc(Sc3ccccc3N)c2C#N)cc1 | > 100 | > 100 | > 100 | 42.4 | > 100 | 48.2 | > 100 | 28.1 | > 100 | 61 | 45.3 | > 100 | > 100 | > 100 |
| CCOC(=O)CCC(NC(=O)OCc1ccccc1)C(=O)NC(CCC(=O)OCC)C(=O)NC(CCC(=O)OCC)C(=O)NC(CCC(=O)OCC)C(=O)NC(CCC(=O)OCC)C(=O)NC(Cc1ccc([N+](=O)[O-])cc1)C(=O)NC(CCC(=O)OCC)C(=O)NC(CCC(=O)OCC)C(=O)NC(CCC(=O)OCC)C(=O)NC(CCC(=O)OCC)C(=O)NC(CCC(=O)OCC)C(=O)OCC (configuration not stated) (Cbz-E(OEt)E(OEt)E(OEt)E(OEt)E(OEt)[Phe(4-NO2)]E(OEt)E(OEt)E(OEt)E(OEt)E(OEt)-OEt; configuration not given here) | > 50 | > 50 | > 50 | > 50 | > 50 | > 5 | > 50 | > 50 | > 50 | > 50 | > 50 | > 50 | > 50 | > 50 |
| O=C1Nc2ccccc2C1(O)Cc1ccccn1 (configuration not stated) | > 100 | > 100 | > 100 | > 100 | > 100 | > 100 | > 100 | > 100 | > 100 | > 100 | > 100 | > 100 | > 100 | > 100 |
